Data from patent US20260265195A1, “SARM1 MODULATORS, PREPARATIONS, AND USES THEREOF” (SIRONAX LTD, priority 2022, published 2026).

biological target: T1, SARM1 (50-724) (Homo sapiens, UniProt Q6SZW1); assay: SARM1 (50-724) enzymatic assay (NMN-activated NAD+ hydrolysis, LC-MS/MS readout); format: biochemical; conditions: purified SARM1 (50-724) 2 nM, 200 μM NMN activator, 100 μM NAD+ substrate, 1 h at room temperature, read-out: IC50 (SARM1 inhibitory activity)
T1 construct: Purified SARM1 (50-724) with a final concentration of 2 nM
T1 sequence (Q6SZW1 50-724): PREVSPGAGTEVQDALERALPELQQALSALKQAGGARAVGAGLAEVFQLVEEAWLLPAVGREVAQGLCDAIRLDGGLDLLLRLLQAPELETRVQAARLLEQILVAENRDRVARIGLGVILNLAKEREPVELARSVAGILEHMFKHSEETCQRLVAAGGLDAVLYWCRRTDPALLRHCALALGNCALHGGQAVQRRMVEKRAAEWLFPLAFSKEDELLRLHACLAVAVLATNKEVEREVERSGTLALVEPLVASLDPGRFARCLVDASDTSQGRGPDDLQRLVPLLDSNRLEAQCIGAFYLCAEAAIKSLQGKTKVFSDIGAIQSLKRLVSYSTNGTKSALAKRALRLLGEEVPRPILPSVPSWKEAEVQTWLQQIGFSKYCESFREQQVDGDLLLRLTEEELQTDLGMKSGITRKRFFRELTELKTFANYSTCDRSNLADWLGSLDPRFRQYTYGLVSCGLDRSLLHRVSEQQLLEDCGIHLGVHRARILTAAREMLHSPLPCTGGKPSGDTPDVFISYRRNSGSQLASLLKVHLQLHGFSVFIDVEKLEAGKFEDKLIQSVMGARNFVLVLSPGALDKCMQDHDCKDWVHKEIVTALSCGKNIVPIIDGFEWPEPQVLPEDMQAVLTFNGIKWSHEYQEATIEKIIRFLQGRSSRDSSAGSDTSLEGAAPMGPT
Experimental: Example II. SARM1 (50-724) Enzymatic Assay
An enzymatic assay was performed in a 384-well plate using Dulbecco's phosphate-buffered saline (PBS) as the reaction buffer. Purified SARM1 (50-724) with a final concentration of 2 nM was pre-incubated with a test compound at 1% DMSO final assay concentration for 15 min at room temperature. The reaction was initiated by adding a mixture of 200 μM nicotinamide mononucleotide (NMN) as activator and 100 μM NAD^+ as substrate. After 1 h of incubation at room temperature, the reaction was terminated with 10 times volume of 70% acetonitrile, then centrifuged at 3800 rpm for 10 min. The samples were analyzed using LC-MS/MS after diluted to a proper concentration by 10 mM ammonium acetate (pH 9.75).
ND means “not determined.”

Structure (SMILES) | IC50 [nM]
Cc1ccc2[nH]c(C(=O)N(C)CCC(C)C)c(CNc3ccccn3)c2c1 [Compound 88, N-isopentyl-N,5-dimethyl-3-((pyridin-2-ylamino)methyl)-1H-indole-2-carboxamide] | ≥ 1000
Cc1ccc2[nH]c(C(=O)N(C)C3CCCC3)c(CNc3nccs3)c2c1 [Compound 76, N-cyclopentyl-N,5-dimethyl-3-((thiazol-2-ylamino)methyl)-1H-indole-2-carboxamide] | 101 to 500
CN(C(=O)c1[nH]ccc1CO)C1CCCC1 [Compound 45, N-cyclopentyl-3-(hydroxymethyl)-N-mcthyl-1H-pyrrole-2-carboxamide] | ≥ 1000
CN(C(=O)c1nc2c(N3CCOCC3)cccc2[nH]1)C1CCCC1 [Compound 101, N-cyclopentyl-N-methyl-4-morpholino-1H-benzo[d]imidazole-2-carboxamide] | ≥ 1000
CS(=O)(=O)NCCN(C(=O)c1nc2cc(C(F)(F)F)ccc2[nH]1)c1cccc(Cl)c1Cl [Compound 147, N-(2,3-dichlorophenyl)-N-(2-(methylsulfonamido)ethyl)-5-(trifluoromethyl)-1H-benzo[d]imidazole-2-carboxamide] | ≤ 100
O=C(c1nc2cc(C(F)(F)F)ccc2[nH]1)N(CCO)c1cccc(Cl)c1Cl [Compound 103, N-(2,3-dichlorophenyl)-(2-hydroxyethyl)-5-(trifluoromethyl)-1H-benzo[d]imidazole-2-carboxamide] | ≤ 100
Cc1cccc2[nH]c(C(=O)N(C)C3CCCC3)c(CO)c12 [Compound 21, N-cyclopenty1-3-(hydroxymethyl)-N,4-dimethyl-1H-indole-2-carboxamide] | ≥ 1000
Cc1cccc2c(CO)c(C(=O)N(C)C3CCCC3)[nH]c12 [Compound 39, N-cyclopentyl-3-(hydroxymethyl)-N,7-dimethyl-1H-indole-2-carboxamide] | ≥ 1000
Cc1ccc2[nH]c(C(=O)N(C)c3cccc(Cl)c3Cl)c(CNc3nccs3)c2c1 [Compound 79, N-(2,3-dichlorophenyl)-N,5-dimethyl-3-((thiazol-2-ylamino)methyl)-1H-indole-2-carboxamide] | ≤ 100
COc1ccc2c(CO)c(C(=O)N(C)C3CCCC3)[nH]c2c1 [Compound 29, N-cyclopentyl-3-(hydroxymethyl)-6-methoxy-N-methyl-1H-indole-2-carboxamide] | ≥ 1000
CN(C(=O)c1nc2c(C3COC3)cccc2[nH]1)C1CCCC1 [Compound 113, N-cyclopentyl-N-methyl-4-(oxetan-3-yl)-1H-benzo[d]imidazole-2-carboxamide] | ≥ 1000
CN(C(=O)c1nc2c(S(C)(=O)=O)cccc2[nH]1)C1CCCC1 [Compound 99, N-cyclopentyl-N-methyl-4-(methylsulfonyl)-1H-benzo[d]imidazole-2-carboxamide] | ≥ 1000
Cc1ccc2[nH]c(C(=O)N(CCO)c3cccc(Cl)c3Cl)nc2c1Br [Compound 160] | ≤ 100
Cc1ccnc(N(CC(F)(F)CO)C(=O)c2nc3cc(C(F)(F)F)ccc3[nH]2)c1Cl [Compound 156, N-(3-chloro-4-methylpyridin-2-yl)-N-(2,2-difluoro-3-hydroxypropyl)-5-(trifluoromethyl)-1H-benzo[d]imidazole-2-carboxamide] | 101 to 500
Cc1ccc2[nH]c(C(=O)N(C)C3CCCC3)nc2c1 [Compound 46, N-cyclopentyl-N,5-dimethyl-1H-benzo[d]imidazole-2-carboxamide] | 101 to 500
Cc1c[nH]c(-c2ccc3[nH]c(C(=O)N(CCO)c4cccc(Cl)c4Cl)nc3c2)n1 [Compound 154] | ≥ 1000
Cc1ccc2[nH]c(C(=O)N(C)c3cccc(Cl)c3)c(CO)c2c1 [Compound 24, N-(3-chlorophenyl)-3-(hydroxymethyl)-N,5-dimethyl-1H-indole-2-carboxamide] | ≥ 1000
Cc1ccc2c(CO)c(C(=O)N(C)C3CCCC3)[nH]c2c1 [Compound 17, N-cyclopentyl-3-(hydroxymethyl)-N,6-dimethyl-1H-indole-2-carboxamide] | ≥ 1000
Cc1ccc2[nH]c(C(=O)N(C)C3CCCC3)c(CNc3cncs3)c2c1 [Compound 78, N-cyclopentyl-N,5-dimethyl-3-((thiazol-5-ylamino)methyl)-1H-indole-2-carboxamide] | 101 to 500
CN(C(=O)c1[nH]c2ccc(C(F)(F)F)cc2c1CO)C1CCCC1 [Compound 28, N-cyclopentyl-3-(hydroxymethyl)-N-methyl-5-(trifluoromethyl)-1H-indole-2-carboxamide] | 101 to 500

The next lines start with the values.

IC50 [nM] | Structure (SMILES)
101 to 500 | Cc1nsc(N(CC2(F)COC2)C(=O)c2nc3cc(C(F)(F)F)ccc3[nH]2)c1Cl [Compound 188, N-(4-chloro-3-methylisothiazol-5-yl)-N-((3-fluorooxetan-3-yl)methyl)-5-(trifluoromethyl)-1H-benzo[d]imidazole-2-carboxamide]
≤ 100 | C=C(c1cn[nH]c1)c1ccc2[nH]c(C(=O)N(CCO)c3cccc(Cl)c3Cl)nc2c1 [Compound 187]
≤ 100 | CC(C)(O)c1ccc2[nH]c(C(=O)N(CC3(F)COC3)c3cccc(Cl)c3Cl)nc2c1 [Compound 183]
101 to 500 | Cc1c(F)cncc1N(CCO)C(=O)c1nc2cc(C(F)(F)F)ccc2[nH]1 [compound 169]
≤ 100 | O=C(c1nc2c(F)c(Cl)ccc2[nH]1)N(CC(F)(F)CO)c1cccc(F)c1Cl [Compound 236]
≤ 100 | CC1(CN(C(=O)c2nc3cc(C(F)(F)F)ccc3[nH]2)c2cccc(Cl)c2Cl)COC1 [Compound 181, N-(2,3-dichlorophenyl)-N-((3-methyloxetan-3-yl)methyl)-5-(trifluoromethyl)-1H-benzo[d]imidazole-2-carboxamide]
≤ 100 | CS(=O)(=O)CCCN(C(=O)c1nc2cc(C(F)(F)F)ccc2[nH]1)c1cccc(F)c1Br [Compound 227, N-(2-bromo-3-fluorophenyl)-N-(3-(methylsulfonyl)propyl)-5-(trifluoromethyl)-1H-benzo[d]imidazole-2-carboxamide]
≤ 100 | O=C(c1nc2cc(C(F)(F)F)ccc2[nH]1)N(CC(F)(F)CO)c1cccc(F)c1Cl [Compound 185, N-(2-chloro-3-fluorophenyl)-N-(2,2-difluoro-3-hydroxypropyl)-5-(trifluoromethyl)-1H-benzo[d]imidazole-2-carboxamide]
≤ 100 | O=C(c1nc2cc(C(F)(F)F)ccc2[nH]1)N(CC1CS(=O)(=O)C1)c1cccc(Cl)c1Cl [Compound 180, N-(2,3-dichlorophenyl)-N-((1,1-dioxidothietan-3-yl)methyl)-5-(trifluoromethyl)-1H-benzo[d]imidazole-2-carboxamide]
≤ 100 | CC(C)(C#N)c1ccc2[nH]c(C(=O)N(CC(F)(F)CO)c3ccc(F)c(F)c3Cl)nc2c1 [Compound 208]
≤ 100 | COC1CN(CCN(C(=O)c2nc3cc(C(F)(F)F)ccc3[nH]2)c2cccc(Cl)c2Cl)C1 [Compound 167, N-(2,3-dichlorophenyl)-N-(2-(3-methoxyazetidin-1-yl)ethyl)-5-(trifluoromethyl)-1H-benzo[d]imidazole-2-carboxamide]
501 to 1000 | Cc1c(Cl)cncc1N(CCO)C(=O)c1nc2c(Cl)c(Cl)ccc2[nH]1 [Compound 175]
≤ 100 | O=C(c1nc2cc(C(F)(F)F)ccc2[nH]1)N(CC(F)(F)CO)c1ccc(F)cc1Cl [Compound 216, N-(2-chloro-4-fluorophenyl)-N-(2,2-difluoro-3-hydroxypropyl)-5-(trifluoromethyl)-1H-benzo[d]imidazole-2-carboxamide]
